In ChEMBL document CHEMBL1201862, “PubChem BioAssay data set” (2004):
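Five compound concentrations were applied to cells in 96-well plates for 48 hours; endpoints were derived by simple linear interpolation of the resulting dose-response curve. The concentration for 50% growth inhibition is given as GI50.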 Active and inactive are the calls of the source. Rule as the data show it: active = GI50 up to about 1.1 µM and inactive = higher.

Legend:
Assay in all cases: inhibition of tumour cell growth, NCI panel, 48 h
786-0 = test system: 786-0
A498 = test system: A498
ACHN = test system: ACHN
CAKI-1 = test system: CAKI-1
CCRF-CEM = test system: CCRF-CEM
HCC 2998 = test system: HCC 2998
HCT-116 = test system: HCT-116
HOP-92 = test system: HOP-92
HT-29 = test system: HT-29
IGROV-1 = test system: IGROV-1
KM12 = test system: KM12
M14 = test system: M14
NCI-H23 = test system: NCI-H23
OVCAR-8 = test system: OVCAR-8
RPMI-8226 = test system: RPMI-8226
RXF 393 = test system: RXF 393
SF-268 = test system: SF-268
SK-MEL-2 = test system: SK-MEL-2
SNB-19 = test system: SNB-19
TK-10 = test system: TK-10

## O=S1(=O)CS(=O)(=O)OCCCO1
786-0
  GI50: > 100 µM (inactive)
A498
  GI50: > 100 µM (inactive)
ACHN
  GI50: 52.1 µM (inactive)
CAKI-1
  GI50: 24.3 µM (inactive)
CCRF-CEM
  GI50: 63.8 µM (inactive)
HCC 2998
  GI50: > 100 µM (inactive)
HCT-116
  GI50: > 100 µM (inactive)
HOP-92
  GI50: > 100 µM (inactive)
HT-29
  GI50: > 100 µM (inactive)
IGROV-1
  GI50: > 100 µM (inactive)
KM12
  GI50: > 100 µM (inactive)
M14
  GI50: > 100 µM (inactive)
NCI-H23
  GI50: 68.5 µM (inactive)
OVCAR-8
  GI50: > 100 µM (inactive)
RPMI-8226
  GI50: > 100 µM (inactive)
RXF 393
  GI50: > 100 µM (inactive)
SF-268
  GI50: > 100 µM (inactive)
SK-MEL-2
  GI50: > 100 µM (inactive)
SNB-19
  GI50: > 100 µM (inactive)
TK-10
  GI50: > 100 µM (inactive)

## COc1cc2ncnc(NS(=O)(=O)c3cc4ccccc4s3)c2cc1OC
786-0
  GI50: > 100 µM (inactive)
A498
  GI50: 56.4 µM (inactive)
ACHN
  GI50: > 100 µM (inactive)
CAKI-1
  GI50: > 100 µM (inactive)
CCRF-CEM
  GI50: > 100 µM (inactive)
HCC 2998
  GI50: > 100 µM (inactive)
HCT-116
  GI50: > 100 µM (inactive)
HOP-92
  GI50: 34 µM (inactive)
HT-29
  GI50: > 100 µM (inactive)
IGROV-1
  GI50: 81.5 µM (inactive)
KM12
  GI50: > 100 µM (inactive)
M14
  GI50: > 100 µM (inactive)
NCI-H23
  GI50: 93.1 µM (inactive)
OVCAR-8
  GI50: > 100 µM (inactive)
RPMI-8226
  GI50: 58.3 µM (inactive)
RXF 393
  GI50: 29.8 µM (inactive)
SF-268
  GI50: > 100 µM (inactive)
SK-MEL-2
  GI50: > 100 µM (inactive)
SNB-19
  GI50: > 100 µM (inactive)
TK-10
  GI50: > 100 µM (inactive)

## CC(C)(C)OC(=O)N(CCCN)CCCCN
786-0
  GI50: > 100 µM (inactive)
A498
  GI50: > 100 µM (inactive)
ACHN
  GI50: > 100 µM (inactive)
CAKI-1
  GI50: > 100 µM (inactive)
CCRF-CEM
  GI50: > 100 µM (inactive)
HCC 2998
  GI50: > 100 µM (inactive)
HCT-116
  GI50: > 100 µM (inactive)
HOP-92
  GI50: > 100 µM (inactive)
HT-29
  GI50: > 100 µM (inactive)
IGROV-1
  GI50: > 100 µM (inactive)
KM12
  GI50: > 100 µM (inactive)
M14
  GI50: > 100 µM (inactive)
NCI-H23
  GI50: > 100 µM (inactive)
OVCAR-8
  GI50: > 100 µM (inactive)
RPMI-8226
  GI50: > 100 µM (inactive)
RXF 393
  GI50: > 100 µM (inactive)
SF-268
  GI50: > 100 µM (inactive)
SK-MEL-2
  GI50: > 100 µM (inactive)
SNB-19
  GI50: > 100 µM (inactive)
TK-10
  GI50: > 100 µM (inactive)

## CN1C=COC1N=C1CCCCC1 (stereo not given)
786-0
  GI50: > 100 µM (inactive)
A498
  GI50: > 100 µM (inactive)
ACHN
  GI50: > 100 µM (inactive)
CAKI-1
  GI50: 3.74 µM (inactive)
CCRF-CEM
  GI50: > 100 µM (inactive)
HCC 2998
  GI50: > 100 µM (inactive)
HCT-116
  GI50: > 100 µM (inactive)
HOP-92
  GI50: 75.7 µM (inactive)
HT-29
  GI50: > 100 µM (inactive)
IGROV-1
  GI50: > 100 µM (inactive)
KM12
  GI50: > 100 µM (inactive)
M14
  GI50: > 100 µM (inactive)
NCI-H23
  GI50: > 100 µM (inactive)
OVCAR-8
  GI50: > 100 µM (inactive)
RPMI-8226
  GI50: > 100 µM (inactive)
RXF 393
  GI50: > 100 µM (inactive)
SF-268
  GI50: > 100 µM (inactive)
SK-MEL-2
  GI50: > 100 µM (inactive)
SNB-19
  GI50: 4.02 µM (inactive)
TK-10
  GI50: > 100 µM (inactive)

## O=C1c2ccccc2C(=O)N1[C@@H](Cc1ccccc1)C(=O)n1cccc1CO
786-0
  GI50: > 100 µM (inactive)
A498
  GI50: > 100 µM (inactive)
ACHN
  GI50: > 100 µM (inactive)
CAKI-1
  GI50: > 100 µM (inactive)
CCRF-CEM
  GI50: > 100 µM (inactive)
HCC 2998
  GI50: > 100 µM (inactive)
HCT-116
  GI50: > 100 µM (inactive)
HOP-92
  GI50: > 100 µM (inactive)
HT-29
  GI50: > 100 µM (inactive)
IGROV-1
  GI50: > 100 µM (inactive)
KM12
  GI50: > 100 µM (inactive)
M14
  GI50: > 100 µM (inactive)
NCI-H23
  GI50: > 100 µM (inactive)
OVCAR-8
  GI50: > 100 µM (inactive)
RPMI-8226
  GI50: 93.8 µM (inactive)
RXF 393
  GI50: 1.02 µM (active)
SF-268
  GI50: > 100 µM (inactive)
SK-MEL-2
  GI50: > 100 µM (inactive)
SNB-19
  GI50: > 100 µM (inactive)
TK-10
  GI50: > 100 µM (inactive)

## O=C1/C(=C/c2ccccc2)CCC/C1=C\c1ccc(O)c(CN2CCCCC2)c1
786-0
  GI50: 1.69 µM (inactive)
A498
  GI50: 5.37 µM (inactive)
ACHN
  GI50: 1.81 µM (inactive)
CAKI-1
  GI50: 8.07 µM (inactive)
CCRF-CEM
  GI50: 3.3 µM (inactive)
HCC 2998
  GI50: 2.39 µM (inactive)
HCT-116
  GI50: 1.57 µM (inactive)
HOP-92
  GI50: 4.55 µM (inactive)
HT-29
  GI50: 1.77 µM (inactive)
IGROV-1
  GI50: 3.72 µM (inactive)
KM12
  GI50: 0.933 µM (active)
M14
  GI50: 3.26 µM (inactive)
NCI-H23
  GI50: 3.96 µM (inactive)
OVCAR-8
  GI50: 3.78 µM (inactive)
RPMI-8226
  GI50: 3.27 µM (inactive)
RXF 393
  GI50: 13.8 µM (inactive)
SF-268
  GI50: 5.07 µM (inactive)
SK-MEL-2
  GI50: 11.9 µM (inactive)
SNB-19
  GI50: 9.35 µM (inactive)
TK-10
  GI50: 15.2 µM (inactive)

## COc1cc(CCNC2=CC(=O)c3cccnc3C2=O)ccc1O
786-0
  GI50: 1.37 µM (inactive)
A498
  GI50: 2.6 µM (inactive)
ACHN
  GI50: 1.31 µM (inactive)
CAKI-1
  GI50: 1.39 µM (inactive)
CCRF-CEM
  GI50: 3.64 µM (inactive)
HCC 2998
  GI50: 1.73 µM (inactive)
HCT-116
  GI50: 1.84 µM (inactive)
HOP-92
  GI50: 5.48 µM (inactive)
HT-29
  GI50: 1.97 µM (inactive)
IGROV-1
  GI50: 1.44 µM (inactive)
KM12
  GI50: 1.95 µM (inactive)
M14
  GI50: 1.49 µM (inactive)
NCI-H23
  GI50: 0.809 µM (active)
OVCAR-8
  GI50: 2.26 µM (inactive)
RPMI-8226
  GI50: 1.92 µM (inactive)
RXF 393
  GI50: 0.955 µM (active)
SF-268
  GI50: 2.07 µM (inactive)
SK-MEL-2
  GI50: 1.35 µM (inactive)
SNB-19
  GI50: 1.61 µM (inactive)
TK-10
  GI50: 7.96 µM (inactive)

## O=C1c2cc([N+](=O)[O-])ccc2-c2cccc(F)c21
786-0
  GI50: > 100 µM (inactive)
A498
  GI50: 65.6 µM (inactive)
ACHN
  GI50: > 100 µM (inactive)
CAKI-1
  GI50: > 100 µM (inactive)
CCRF-CEM
  GI50: 23.7 µM (inactive)
HCC 2998
  GI50: 80.2 µM (inactive)
HCT-116
  GI50: 67.6 µM (inactive)
HOP-92
  GI50: > 100 µM (inactive)
HT-29
  GI50: > 100 µM (inactive)
IGROV-1
  GI50: 40.7 µM (inactive)
KM12
  GI50: 79.4 µM (inactive)
M14
  GI50: > 100 µM (inactive)
NCI-H23
  GI50: > 100 µM (inactive)
OVCAR-8
  GI50: 43.1 µM (inactive)
RPMI-8226
  GI50: 64.1 µM (inactive)
RXF 393
  GI50: 42.9 µM (inactive)
SF-268
  GI50: 44.3 µM (inactive)
SK-MEL-2
  GI50: 21.2 µM (inactive)
SNB-19
  GI50: > 100 µM (inactive)
TK-10
  GI50: > 100 µM (inactive)

## CCOC(=O)c1c(N2CCN(C)CC2)[nH]c(=O)c(C(c2c(Cl)cccc2Cl)c2c(O)c(C(=O)OCC)c(N3CCN(C)CC3)[nH]c2=O)c1O
786-0
  GI50: 27.7 µM (inactive)
A498
  GI50: 22.1 µM (inactive)
ACHN
  GI50: 20.7 µM (inactive)
CAKI-1
  GI50: 26.5 µM (inactive)
CCRF-CEM
  GI50: 31 µM (inactive)
HCC 2998
  GI50: 36.8 µM (inactive)
HCT-116
  GI50: 38.1 µM (inactive)
HOP-92
  GI50: 19.1 µM (inactive)
HT-29
  GI50: 19.8 µM (inactive)
IGROV-1
  GI50: 20.7 µM (inactive)
KM12
  GI50: 23.5 µM (inactive)
M14
  GI50: 30 µM (inactive)
NCI-H23
  GI50: 40.3 µM (inactive)
OVCAR-8
  GI50: 22 µM (inactive)
RPMI-8226
  GI50: 39.2 µM (inactive)
RXF 393
  GI50: 18.2 µM (inactive)
SF-268
  GI50: 24.2 µM (inactive)
SK-MEL-2
  GI50: 26 µM (inactive)
SNB-19
  GI50: 20.4 µM (inactive)
TK-10
  GI50: 30.5 µM (inactive)

## COC(=O)[C@@H]1C[C@H]([Se]c2ccccc2)CN1C(=O)OCc1ccccc1
786-0
  GI50: 41.7 µM (inactive)
A498
  GI50: 31.2 µM (inactive)
ACHN
  GI50: 28.1 µM (inactive)
CAKI-1
  GI50: 36 µM (inactive)
CCRF-CEM
  GI50: 34.1 µM (inactive)
HCC 2998
  GI50: 87.9 µM (inactive)
HCT-116
  GI50: 34.1 µM (inactive)
HOP-92
  GI50: 33.7 µM (inactive)
HT-29
  GI50: 26 µM (inactive)
IGROV-1
  GI50: 50.6 µM (inactive)
KM12
  GI50: 30.8 µM (inactive)
M14
  GI50: 29.8 µM (inactive)
NCI-H23
  GI50: 20.4 µM (inactive)
OVCAR-8
  GI50: 45.3 µM (inactive)
RPMI-8226
  GI50: 24.8 µM (inactive)
RXF 393
  GI50: 20.2 µM (inactive)
SF-268
  GI50: 47.5 µM (inactive)
SK-MEL-2
  GI50: 19.5 µM (inactive)
SNB-19
  GI50: 62.7 µM (inactive)
TK-10
  GI50: 53.5 µM (inactive)
